Data set [1] has as its target T1, SRTF1 (Pimelobacter simplex, UniProt A0A0A1DUF2).
T1 construct: gene KR76_27130; assembled on quantum dots for FRET
T1 sequence (A0A0A1DUF2 1-189): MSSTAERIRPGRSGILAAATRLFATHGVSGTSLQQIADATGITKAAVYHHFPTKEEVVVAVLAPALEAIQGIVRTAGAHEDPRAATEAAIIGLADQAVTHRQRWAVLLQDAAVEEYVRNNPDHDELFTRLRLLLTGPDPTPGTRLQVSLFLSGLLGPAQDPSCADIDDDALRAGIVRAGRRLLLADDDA
Put plainly: QD-TF-FRET, ligand-induced release of Cy5-labelled operator DNA. The settings on record: sensor 3: QD/TF/DNA ratio 1:1:18, operator with 2 mutated bases in one half of palindrome, HEPES, RT; allosteric. The data set is classed as biochemical.

The target of data set [2] is T2, SRTF1 (Pimelobacter simplex ATCC 6946, UniProt A0A0A1DUF2 1-189).
T2 sequence: T1 sequence (A0A0A1DUF2 1-189)
Put plainly: BLI; no steroid; BLI: 28 mM Tris-HCl pH 8.0, 5 mM MgCl (so in the source), 4.25% glycerol, 25 mM NaCl, 1.67 mg/mL BSA, 30 C; QD-FRET: 1x HEPES with binding buffer (5x: 25 mM MgCl2, 25% glycerol, 250 mg/L salmon sperm DNA, 0.1 M Tris-HCl), RT. Conditions: protein: recombinant; tags: C-terminal 6xHis; chain copies: 2; label: 5' biotin on strand 1; blunt.

Usually IC50 stands for the point on the concentration scale where inhibition reaches its midpoint.

In the case of `C[C@]12CCC(=O)C=C1CC[C@@H]1[C@@H]2[C@@H](O)C[C@]2(C=O)[C@@H](C(=O)CO)CC[C@@H]12` [ALD, aldosterone], on SRTF1 [1], the IC50 was 312 ± 42 nM.

B1: BLI-SCRM (dsDNA)
DNA 1: AAATTGTCCCGGGCCTTTCTCCGCGCGTCTGGTAACCCTTAGGATTACTC
DNA 2: GAGTAATCCTAAGGGTTACCAGACGCGCGGAGAAAGGCCCGGGACAATTT
In the case of B1, the binding result with SRTF1 [2] is reported as “no binding”.

For the origin of these results see article PMC7062782, “A progesterone biosensor derived from microbial screening” (Nature Communications, 2020).
